In US20230233736A1, “ANTIMICROBIAL FORMULATIONS COMPRISING SILICONE” (AMICOAT AS, priority 2020, published 2023):

Tests used:
Aspergillus niger = assay: MIC microbroth dilution (CLSI); format: cell-based; conditions: G.R. Micro collection
[1] = system: Staphylococcus hominis 58-69; assay: Growth inhibition zones around silicone prosthetic liner; format: cell-based
From the text: (§1) Bacterial Strains: • Staphylococcus epidermidis RP62A • Staphylococcus hominis 58-69
(§2) The level of bacterial inhibition was examined by number of CFU and growth zone inhibition. All materials tested were washed with water after completion of the swell and dry procedure to ensure that the activity of the materials was due to internally absorbed AMC-109 only.

[2] = system: Staphylococcus epidermidis RP62A; assay: as above; format: cell-based
From the text: as §1, §2

[3] = system: Staphylococcus aureus FDA486; assay: Murine skin infection model, topical treatment; format: in vivo, mice; conditions: FIG. 1; cream or gel containing 2% (w/w), three treatments at three hourly intervals, compared to placebo
Procedure: (§3) The skin of mice was infected with Staphylococcus aureus or Streptococcus pyogenes and subsequently given a total of three treatments at three hourly intervals. Three hours after the last treatment, skin biopsies were collected and the number of colony forming units (CFUs) present in the skin sample was determined. Results are shown in FIGS. 1 and 2, expressed as the number of colony forming units per mouse.
In experiment 1 (FIG. 1), compound 2 was applied to the murine skin as part of either a cream or a gel containing 2% (w/w) of compound 2. The same cream or gel without compound 2 was used as a negative control (placebo).
as §3, with “3, 4” for “1”, “5” for “2,”
In experiment 1 (FIG. 3), compound 7 was applied to the murine skin as part of either a cream or a gel containing 2% (w/w) of compound 7. The same cream or gel without compound 7 was used as a negative control (placebo). Bactroban 2% cream was used as a positive control.
In experiment 3 (FIG. 5), compound 8 was applied in a 2% cream formulation on a Staphylococcus aureus FDA 486 infection in the murine skin infection model. A placebo cream and two known antibacterials, “Fucidin (fucidic acid) ointment 2%” and “Bactroban (mupericin) cream 2%” were used as controls.

[4] = system: Trichophyton interdigitale; assay: MIC microbroth dilution (CLSI); format: cell-based; conditions: G.R. Micro collection
E. coli (5067-6002) = assay: Modified AATCC 100 method, silicone membrane valves; conditions: low loading, original surface (A*)
[5] = system: Staphylococcus hominis 58-69; assay: CFU on silicone prosthetic liner patches; format: cell-based; conditions: washed with water
Procedure: as §1
(§4) Overnight colonies of S. epidermidis or S. hominis were diluted to 0.5 McFarland (1×10^8 CFU/ml) in 0.85% NaCl. The bacterial solution was further diluted in Tryptic Soy Broth media (to 1×10^5 CFU/ml) and drops of 100 μl was applied to the surfaces of the silicone patches. Silicone patches were placed on glass microscope slides, and the glass slides were placed in a moist incubation chamber and incubated for 24 hours at 37° C.
(§5) For determining CFU, the samples were vortexed in 1 ml 0.85% NaCl and serial dilutions (10^−1 to 10^−6) were made. 100 μl aliquots of the serial dilutions were streaked on blood agar plates, and further incubated overnight prior to CFU counting.
as §2

[6] = system: Staphylococcus epidermidis RP62A; assay: CFU on silicone prosthetic liner patches; format: cell-based; conditions: washed with water
Procedure: as §1, §4, §5, §2

Acinetobacter baumanii = assay: MIC microbroth dilution (CLSI); format: cell-based; set-up: unit not given beside the values; conditions: antibiotic-susceptible clinical isolate
From the text: Cation-adjusted Mueller-Hinton broth (Oxoid Ltd., Basingstoke, UK and Trek Diagnostic Systems Ltd., East Grinstead, UK) (supplemented with 5% laked horse blood for Streptococcus spp., Corynebacterium jeikeium and Listeria monocytogenes) was used for aerobic bacteria, with an initial inoculum of approximately 10^5 colony-forming units (CFU)/m L.

Work on `CC(C)(C)c1cc(C(C)(C)C)c2[nH]c(C(C)(C)C)c(CC(NC(=O)C(N)CCCNC(=N)N)C(=O)NC(CCCNC(=N)N)C(=O)NCCc3ccccc3)c2c1` (stereo not shown) [Compound 2] yielded an MIC (Aspergillus niger) of 8, a growth inhibition zone ([1]; 5 minutes swell time) of 4 mm and a growth inhibition zone ([1]; 15 minutes swell time) of 2 mm. The growth inhibition zone ([2]; 5 minutes swell time) was 3 mm, the growth inhibition zone ([2]; 15 minutes swell time) was 3 mm and the “number of colony forming units (CFU) in skin biopsy” value [3] was “number of CFUs was reduced”. The MIC [4] was 8, the “CFU (samples containing AMC-109)” value (E. coli (5067-6002)) was 0 and the CFU ([5]; 5 minutes swell time) was 0 CFU/ml. It also gave a CFU ([5]; 15 minutes swell time) of 0 CFU/ml, a CFU ([6]; 5 minutes swell time) of 0 CFU/ml and a CFU ([6]; 15 minutes swell time) of 0 CFU/ml. The MIC (Acinetobacter baumanii) was 16.
